From PubChem BioAssay AID2060619 (Molecular Pharmacology Branch, DTP, NCI, 2025)
“And” between values parts separate entries of the source, which are not always exact repeats. Equal entries are not always repeated.

Test system: 323965-272-R-J2-PDC complex spheroid viability
Assay: Anticancer human tumor 323965-272-R-J2-PDC patient-derived pancreatic carcinoma cell line growth inhibition [CLK]
Details: for viability, T/C: stronger effect = lower value
Excerpt: A high-throughput screen of multi-cell type tumor spheroids was designed to identify active combinations of […] and targeted small molecules. Complex spheroids include a stromal component modeled by human endothelial cells (HUVEC) and fibroblasts modeled by human mesenchymal stem cells (MSCs). The concentration ranges selected for each drug and investigational agent were based upon clinically achievable concentrations if the clinical Cmax of the agent was known.
Compounds. The drugs and investigational agents: cirtuvivint (SM08502; NSC835563), CC-671 (NSC850746), vemurafenib (NSC761431), tapotoclax (NSC804041), sotorasib (NSC818433), adagrasib (NSC831453), MRTX-1133 (NSC836407), BAY2416964 (NSC825713), copanlisib (NSC816437), inavolisib (NSC800729), abemaciclib (NSC768073), osimertinib (NSC779217), entinostat (NSC756642), eltanexor (KPT-8602, NSC794443), venetoclax (NSC766270), ceralasertib (NSC777638), bortezomib (NSC756655), olaparib (NSC753686), talazoparib (NSC767125), alisertib (NSC759677), peposertib (NSC802822), gemcitabine (NSC613327), 5-fluorouracil (NSC19893), SN-38 (NSC673596), oxaliplatin (NSC266046), paclitaxel (NSC125973), and doxorubicin (NSC123127), were obtained from the National Cancer Institute (NCI) Developmental Therapeutics Program Chemical Repository. The FDA-approved anticancer drug set is available from the Developmental Therapeutics Program at https://dtp.cancer.gov/organization/dscb/obtaining/available plates.htm. […] The stock solutions were prepared in dimethyl sulfoxide (DMSO, Sigma-Aldrich, St. Louis, MO, cat. D2650), except for the platinum complexes which were prepared in saline (Quality Biological, Gaithersburg, MD, cat. 114-055-101), at 800-fold the tested concentration and stored at -70 degrees C prior to their use. All drugs and investigational agents were tested over a range starting from a high concentration at or near the clinical Cmax and decreasing in half-log increments. If the clinical Cmax for an agent had not been determined, the highest concentration tested was 10 microM.
Cell Culture. All cells were maintained in an incubator at 37 degrees C and 5% CO2 with 95% humidity. The PDC lines were cultured according to standard operating procedures established by the NCI PDMR. Briefly, all PDCs were thawed and cultured in Matrigel-coated flasks prepared with a working solution of 1X Ham's F-12 nutrient mix, without supplementation (Invitrogen, Waltham, MA, cat. 11765054), 100 U/mL penicillin-streptomycin (Invitrogen, cat. 15140122), and 2.5% Matrigel (Corning Inc., Corning, NY, cat. 354248) for the first three passages. The 947758-054-R-J2-PDC line was cultured in 6B/Colon 1A media, which includes advanced DMEM/F-12 (Thermo Fisher Scientific, cat. 12634028), 10 mM HEPES (Thermo Fisher Scientific, cat. 15630080), 1X GlutaMAX supplement (Thermo Fisher Scientific, cat. 35050061), 0.1 mg/mL primocin (InvivoGen, cat. ant-pm-2), 10% defined fetal bovine serum, heat inactivated (HyClone Laboratories Inc., cat. SH30070.03HI), 1.25 mM N-Acetyl-L-cysteine (Sigma-Aldrich, cat. A9165), 10 mM nicotinamide (Sigma-Aldrich, cat. N0636), 1X B-27 supplement (Thermo Fisher Scientific, cat. 17504044), 1X N-2 supplement (Thermo Fisher Scientific, cat. 17502048), and 10 microM Y-27632 dihydrochloride (Tocris Bioscience, cat. 1254). The 876862-298-R-J1-PDC was cultured in 6E media, which includes all 6B/Colon 1A media components plus 50% L-WRN conditioned media (ATCC, cat. CRL-3276), 50 ng/mL recombinant human EGF recombinant protein (hEGF; Thermo Fisher Scientific, cat. PHG0311), 10 ng/mL recombinant human fibroblast growth factor 10 (hGFG-10; PeproTech, cat. 100-26), 1 ng/mL recombinant human fibroblast growth factor 2 (hFGF-2; PeproTech, cat. 100-18B), and 1 µM prostaglandin E2 (PGE2; Tocris, cat. 2296). The 227483-062-R1-J1-PDC line was cultured in Panc media, containing all 6E components except hFGF-2, with the addition of 500 nM SB-431542 (Selleckchem, cat. S1067) and 10 nM gastrin (Tocris, cat. 3006). […]
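Note: spheroids exposed to agents for seven days before readout.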
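Throughout, for viability, T/C: percent of DMSO vehicle control wells so 100% = untreated growth.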

In the case of NC(=O)C(=Cn1cnc(-c2cc(C(F)(F)F)cc(C(F)(F)F)c2)n1)c1cncnc1 + CNC(=O)c1ccc(Nc2nc(OC3CCCC3)c3c(-c4ccc5nc(C)oc5c4)c[nH]c3n2)c(OC)c1, the IC50 (curve of first compound, second compound 0.0316 µM) is reported as 1.07 µM, the IC50 (curve of first compound, second compound 0.1 µM) is reported as 1.27 µM and the IC50 (curve of first compound, second compound 0.316 µM) is reported as 0.655 µM. It also gave an IC50 (curve of first compound, second compound 1 µM) of 0.0539 µM, an IC50 (curve of first compound, second compound 3.16 µM) of less than 0.00949 µM and an IC50 (curve of first compound, second compound 10 µM) of less than 0.00949 µM. For the same compound, the viability, T/C (second compound 0.0316 µM, first compound 0.00949 µM) was 112%, the viability, T/C (second compound 0.0316 µM, first compound 0.03 µM) was 88.8% and the viability, T/C (second compound 0.0316 µM, first compound 0.0949 µM) was 75.1%. The viability, T/C (second compound 0.0316 µM, first compound 0.3 µM) was 66.7%, the viability, T/C (second compound 0.0316 µM, first compound 0.949 µM) was 62.1% and the viability, T/C (second compound 0.0316 µM, first compound 3 µM) was 30.9%. The viability, T/C (second compound 0.1 µM, first compound 0.00949 µM) was 86.6%, the viability, T/C (second compound 0.1 µM, first compound 0.03 µM) was 89% and the viability, T/C (second compound 0.1 µM, first compound 0.0949 µM) was 70.9%. The viability, T/C (second compound 0.1 µM, first compound 0.3 µM) was 68.6%, the viability, T/C (second compound 0.1 µM, first compound 0.949 µM) was 59.6% and the viability, T/C (second compound 0.1 µM, first compound 3 µM) was 32.5%. For the same compound, the viability, T/C (second compound 0.316 µM, first compound 0.00949 µM) was 65.8%, the viability, T/C (second compound 0.316 µM, first compound 0.03 µM) was 67.9% and the viability, T/C (second compound 0.316 µM, first compound 0.0949 µM) was 64.7%. The viability, T/C (second compound 0.316 µM, first compound 0.3 µM) was 59.9%, the viability, T/C (second compound 0.316 µM, first compound 0.949 µM) was 45.3% and the viability, T/C (second compound 0.316 µM, first compound 3 µM) was 25.5%. For the same compound, the viability, T/C (second compound 1 µM, first compound 0.00949 µM) was 50.9%, the viability, T/C (second compound 1 µM, first compound 0.03 µM) was 56.4% and the viability, T/C (second compound 1 µM, first compound 0.0949 µM) was 45.1%. The viability, T/C (second compound 1 µM, first compound 0.3 µM) was 42.8%, the viability, T/C (second compound 1 µM, first compound 0.949 µM) was 30.6% and the viability, T/C (second compound 1 µM, first compound 3 µM) was 13.1%. For the same compound, the viability, T/C (second compound 3.16 µM, first compound 0.00949 µM) was 46%, the viability, T/C (second compound 3.16 µM, first compound 0.03 µM) was 51.4% and the viability, T/C (second compound 3.16 µM, first compound 0.0949 µM) was 37.1%. It also gave a viability, T/C (second compound 3.16 µM, first compound 0.3 µM) of 38.9%, a viability, T/C (second compound 3.16 µM, first compound 0.949 µM) of 33% and a viability, T/C (second compound 3.16 µM, first compound 3 µM) of 16.6%. The viability, T/C (second compound 10 µM, first compound 0.00949 µM) was 45.1%, the viability, T/C (second compound 10 µM, first compound 0.03 µM) was 48.4% and the viability, T/C (second compound 10 µM, first compound 0.0949 µM) was 47.2%. The viability, T/C (second compound 10 µM, first compound 0.3 µM) was 39.8%, the viability, T/C (second compound 10 µM, first compound 0.949 µM) was 24.1% and the viability, T/C (second compound 10 µM, first compound 3 µM) was 9.32%.

With CCc1c2c(nc3ccc(O)cc13)-c1cc3c(c(=O)n1C2)COC(=O)[C@]3(O)CC the viability, T/C (compound 0.00316 µM) was 90.2% and 92.5%, the viability, T/C (compound 0.01 µM) was 49.5% and 42.7% and the viability, T/C (compound 0.0316 µM) was 34.2% and 29.5%. The viability, T/C (compound 0.1 µM) was 35.9% and 30.6%, the viability, T/C (compound 0.316 µM) was 26.4% and 30.6% and the viability, T/C (compound 1 µM) was 26.2% and 20.2%. For the same compound, the IC50 (curve of compound) was 0.0102 µM and 0.00851 µM.
